BindingDB's records for patent US20240139197 (The Wistar Institute of Anatomy and Biology, 2024)

How the values were obtained:
Experiment in all cases: Biochemical Assay
[1] = biological target: Lysine-specific demethylase 5A (Homo sapiens, UniProt P29375)
[2] = biological target: T1, Lysine-specific demethylase 4C (Homo sapiens, UniProt Q9H3R0)
T1 sequence (Q9H3R0 whole entry): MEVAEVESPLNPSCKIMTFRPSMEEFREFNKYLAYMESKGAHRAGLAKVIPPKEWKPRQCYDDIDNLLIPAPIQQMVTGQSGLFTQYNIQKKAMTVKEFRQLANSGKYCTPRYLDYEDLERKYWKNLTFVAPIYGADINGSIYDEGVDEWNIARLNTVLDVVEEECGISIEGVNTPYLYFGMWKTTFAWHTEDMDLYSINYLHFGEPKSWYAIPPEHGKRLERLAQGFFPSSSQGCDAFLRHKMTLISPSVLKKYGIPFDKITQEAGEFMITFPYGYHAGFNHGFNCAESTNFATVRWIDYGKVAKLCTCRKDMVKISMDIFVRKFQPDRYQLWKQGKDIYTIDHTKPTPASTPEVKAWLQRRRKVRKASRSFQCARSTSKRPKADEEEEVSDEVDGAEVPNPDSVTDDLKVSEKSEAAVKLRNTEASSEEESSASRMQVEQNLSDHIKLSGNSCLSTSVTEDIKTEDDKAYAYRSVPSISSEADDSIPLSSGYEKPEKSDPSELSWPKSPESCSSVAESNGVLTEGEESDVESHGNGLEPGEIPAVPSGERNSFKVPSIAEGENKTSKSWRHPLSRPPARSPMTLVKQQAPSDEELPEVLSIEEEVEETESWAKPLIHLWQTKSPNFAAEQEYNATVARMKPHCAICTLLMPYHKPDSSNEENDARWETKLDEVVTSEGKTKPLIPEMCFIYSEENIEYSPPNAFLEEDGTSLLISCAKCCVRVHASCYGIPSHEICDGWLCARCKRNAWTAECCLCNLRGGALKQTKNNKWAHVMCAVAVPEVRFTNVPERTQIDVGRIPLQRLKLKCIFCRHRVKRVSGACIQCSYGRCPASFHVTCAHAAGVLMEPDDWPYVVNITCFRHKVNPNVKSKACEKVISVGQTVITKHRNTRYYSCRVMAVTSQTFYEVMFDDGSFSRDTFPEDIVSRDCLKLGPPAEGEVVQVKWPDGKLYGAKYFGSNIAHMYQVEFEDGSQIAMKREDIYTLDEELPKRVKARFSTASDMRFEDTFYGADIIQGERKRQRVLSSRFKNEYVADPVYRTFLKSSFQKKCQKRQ

[3] = biological target: Lysine-specific demethylase 5B (Homo sapiens, UniProt Q9UGL1)
Lysine-specific demethylase 5B, sequence (Q9UGL1 whole entry): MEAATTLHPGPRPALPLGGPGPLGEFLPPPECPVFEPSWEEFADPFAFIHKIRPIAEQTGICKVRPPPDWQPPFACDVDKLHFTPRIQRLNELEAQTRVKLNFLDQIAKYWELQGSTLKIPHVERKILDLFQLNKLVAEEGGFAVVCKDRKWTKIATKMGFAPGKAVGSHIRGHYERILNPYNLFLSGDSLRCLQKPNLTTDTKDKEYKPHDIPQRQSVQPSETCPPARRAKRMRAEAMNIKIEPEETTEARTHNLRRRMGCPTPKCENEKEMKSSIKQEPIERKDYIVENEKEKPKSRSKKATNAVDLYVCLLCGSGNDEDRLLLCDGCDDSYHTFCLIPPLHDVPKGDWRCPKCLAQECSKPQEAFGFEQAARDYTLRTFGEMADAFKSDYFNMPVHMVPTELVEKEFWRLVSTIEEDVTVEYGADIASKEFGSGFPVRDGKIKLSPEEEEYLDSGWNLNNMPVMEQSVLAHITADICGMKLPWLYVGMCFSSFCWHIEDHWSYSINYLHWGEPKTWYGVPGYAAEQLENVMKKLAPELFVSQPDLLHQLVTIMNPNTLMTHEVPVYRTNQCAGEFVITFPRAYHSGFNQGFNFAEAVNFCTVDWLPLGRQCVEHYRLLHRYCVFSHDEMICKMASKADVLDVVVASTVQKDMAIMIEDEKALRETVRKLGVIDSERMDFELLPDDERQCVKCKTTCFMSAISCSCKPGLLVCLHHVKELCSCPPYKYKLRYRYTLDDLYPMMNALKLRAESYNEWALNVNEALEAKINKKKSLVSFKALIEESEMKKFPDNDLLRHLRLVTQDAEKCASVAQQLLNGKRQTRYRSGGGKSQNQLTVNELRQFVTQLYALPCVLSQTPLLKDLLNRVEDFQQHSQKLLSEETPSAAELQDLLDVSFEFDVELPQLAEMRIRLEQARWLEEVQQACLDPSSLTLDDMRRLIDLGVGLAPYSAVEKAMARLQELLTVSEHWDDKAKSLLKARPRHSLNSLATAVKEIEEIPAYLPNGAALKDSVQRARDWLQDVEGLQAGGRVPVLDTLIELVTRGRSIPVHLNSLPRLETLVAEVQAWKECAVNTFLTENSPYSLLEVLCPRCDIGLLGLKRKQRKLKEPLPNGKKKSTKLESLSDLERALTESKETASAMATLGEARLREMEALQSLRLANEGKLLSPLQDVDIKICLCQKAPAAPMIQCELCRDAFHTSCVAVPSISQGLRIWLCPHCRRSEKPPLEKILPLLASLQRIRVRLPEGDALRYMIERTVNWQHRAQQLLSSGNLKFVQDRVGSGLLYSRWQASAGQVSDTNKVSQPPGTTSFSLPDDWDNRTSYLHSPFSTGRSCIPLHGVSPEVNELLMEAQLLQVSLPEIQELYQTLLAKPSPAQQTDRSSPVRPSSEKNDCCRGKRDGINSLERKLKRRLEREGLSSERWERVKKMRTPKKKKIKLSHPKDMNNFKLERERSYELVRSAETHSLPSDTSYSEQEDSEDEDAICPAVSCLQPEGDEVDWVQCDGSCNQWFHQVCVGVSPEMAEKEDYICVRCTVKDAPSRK

Lysine-specific demethylase 5A, sequence (P29375 whole entry): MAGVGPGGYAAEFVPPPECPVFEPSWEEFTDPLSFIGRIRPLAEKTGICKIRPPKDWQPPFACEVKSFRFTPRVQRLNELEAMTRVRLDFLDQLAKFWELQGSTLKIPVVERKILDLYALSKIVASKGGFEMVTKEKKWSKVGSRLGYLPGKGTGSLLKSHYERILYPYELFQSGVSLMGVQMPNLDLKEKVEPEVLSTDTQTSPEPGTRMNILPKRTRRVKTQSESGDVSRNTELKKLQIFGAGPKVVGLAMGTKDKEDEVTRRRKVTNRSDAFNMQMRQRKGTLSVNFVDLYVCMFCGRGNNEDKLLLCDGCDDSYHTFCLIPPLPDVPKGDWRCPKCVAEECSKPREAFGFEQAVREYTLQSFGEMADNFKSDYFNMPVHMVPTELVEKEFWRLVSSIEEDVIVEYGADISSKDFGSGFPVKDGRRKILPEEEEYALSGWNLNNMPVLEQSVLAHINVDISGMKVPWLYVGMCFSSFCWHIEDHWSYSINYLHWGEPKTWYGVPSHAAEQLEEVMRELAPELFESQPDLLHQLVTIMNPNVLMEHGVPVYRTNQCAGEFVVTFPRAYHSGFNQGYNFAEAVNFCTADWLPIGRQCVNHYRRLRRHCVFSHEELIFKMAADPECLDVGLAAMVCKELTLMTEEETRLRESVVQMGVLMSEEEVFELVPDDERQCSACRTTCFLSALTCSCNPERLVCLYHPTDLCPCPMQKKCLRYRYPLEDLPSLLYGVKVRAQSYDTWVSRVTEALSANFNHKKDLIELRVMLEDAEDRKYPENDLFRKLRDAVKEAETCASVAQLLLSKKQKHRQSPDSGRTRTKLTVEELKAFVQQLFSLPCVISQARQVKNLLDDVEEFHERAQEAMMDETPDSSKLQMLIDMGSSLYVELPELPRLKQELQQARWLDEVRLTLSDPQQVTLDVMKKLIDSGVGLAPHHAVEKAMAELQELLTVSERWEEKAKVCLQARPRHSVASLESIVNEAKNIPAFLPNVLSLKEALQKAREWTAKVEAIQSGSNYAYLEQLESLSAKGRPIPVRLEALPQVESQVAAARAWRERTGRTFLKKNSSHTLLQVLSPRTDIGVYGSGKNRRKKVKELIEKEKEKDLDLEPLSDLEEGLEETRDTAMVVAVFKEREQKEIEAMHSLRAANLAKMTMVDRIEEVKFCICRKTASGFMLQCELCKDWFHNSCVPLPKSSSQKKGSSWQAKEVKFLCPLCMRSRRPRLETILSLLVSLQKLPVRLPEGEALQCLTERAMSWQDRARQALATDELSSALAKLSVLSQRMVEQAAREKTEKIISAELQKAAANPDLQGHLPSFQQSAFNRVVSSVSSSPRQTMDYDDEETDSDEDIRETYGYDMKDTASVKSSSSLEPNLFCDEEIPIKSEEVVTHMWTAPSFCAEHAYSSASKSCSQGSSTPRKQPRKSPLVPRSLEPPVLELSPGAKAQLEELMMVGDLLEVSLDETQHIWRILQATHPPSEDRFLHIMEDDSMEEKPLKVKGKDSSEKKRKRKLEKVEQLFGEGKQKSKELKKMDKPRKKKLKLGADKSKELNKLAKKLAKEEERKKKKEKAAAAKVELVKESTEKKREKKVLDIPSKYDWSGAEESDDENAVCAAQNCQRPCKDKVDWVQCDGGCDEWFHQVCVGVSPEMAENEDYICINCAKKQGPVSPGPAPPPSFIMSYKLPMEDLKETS

Row | Compound | IC50 [1] | IC50 [2] | IC50 [3]
1 | CC(C)c1c[nH]c2c(C#N)cnn2c1=O [US20240139197, Compound 7] | 170 nM | – | –
2 | Bc1cc(Cl)ccc1COc1ccnn1-c1cc(C(=O)O)ccn1 [US20240139197, Compound 21] | 14 nM | 54 nM | 4 nM
3 | COc1cc(Cl)ccc1COc1ccnn1-c1cc(C(=O)O)ccn1 [US20240139197, Compound 34] | – | – | 3 nM
4 | CCOc1cc(Cl)ccc1COc1ccnn1-c1cc(C(=O)O)ccn1 [US20240139197, Compound 35] | 18 nM | – | –
5 | O=C(O)c1ccnc(-n2nccc2OCc2ccc(Cl)cc2OCC2CC2)c1 [US20240139197, Compound 36] | 25 nM | – | 36 nM
